Activity calls are given as the source filed them.
How the values were obtained:
Bcl-2-like protein 10 = Bcl-2-like protein 10 (Homo sapiens, UniProt Q9HD36); experiment: Bcl-B/TR3 peptide binding disruption – biochemical, fluorescence polarization, FITC-TR3 peptide, selectivity assay for Bfl-1 inhibitor project, primary screen (AID 748);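 note: fluorescence polarization from a fluorescein-labelled TR3 peptide binding purified Bcl-B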
[1] = target: Eukaryotic translation initiation factor 4H (Homo sapiens, UniProt Q15056); experiment: eIF4H binding inhibition – biochemical, uHTS, fluorescence polarization, translation initiation inhibitor project, primary screen (AID 2012)
[2] = target: Polyadenylate-binding protein 1 (Homo sapiens, UniProt P11940); experiment: blockers of PABP interaction with poly(A) – biochemical, fluorescence polarization, […] (AID 2014)
[3] = target: Voltage-gated N-type calcium channel alpha-1B subunit/Amyloid beta A4 precursor protein-binding family A member 1 (Homo sapiens, UniProt Q00975+Q02410); experiment: disruptors of Mint-PDZ/N-type channel peptide interaction – biochemical, HTRF, SAR follow-up (AID 2489); assay type: functional
cells = assay type: functional, cell-based; conditions: PPC-1
MDA-MB-435 = experiment: cells; assay type: functional, cell-based; conditions: Homo sapiens
[4] = target: T1, Protein phosphatase methylesterase 1 (Homo sapiens, UniProt Q9Y570); experiment: endogenous PME-1 and serine hydrolase inhibition – cell lysate, mouse brain cytosol, FP-rhodamine, gel ABPP, selectivity assay for PME-1 inhibitor project, dose response, panel member PME-1 Assay Panel member description: Inhibition of endogenously expressed PME-1 (AID 2366)
[5] = target: T1, Protein phosphatase methylesterase 1; experiment: Late stage results from the probe development effort to identify inhibitors of the protein methylesterase PME-1: Gel-based Activity-Based Protein Profiling (ABPP) IC50: Purified enzyme.; assay type: functional
[6] = target: T2, Nucleotide-binding oligomerization domain-containing protein 2 (Homo sapiens, UniProt Q9HC29); experiment: PubChem AID 2334; assay type: functional
[7] = Trypanosoma cruzi growth suppression in host cells – NIH3T3 host cells, beta-gal luminescence, confirmation (AID 2044); assay type: functional, cell-based;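 note: intracellular parasites grown in NIH/3T3 mouse fibroblasts as host cells; luminescent beta-galactosidase reporter signal from transgenic T. cruzi replicating inside host cells; inhibitors lower the luminescence signal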
HEK293 [8] = experiment: cells; assay type: functional, cell-based; conditions: Homo sapiens
Tumor necrosis factor = Tumor necrosis factor (Homo sapiens, UniProt P01375); experiment: analog potency on TNFa NF-kB signaling – cell-based, revised, SAR follow-up (AID 2337); assay type: functional
[9] = target: T3, Nucleotide-binding oligomerization domain-containing protein 1 (Homo sapiens, UniProt Q9Y239); experiment: blockers of NOD1 pathway activity – revised, SAR follow-up (AID 2333); assay type: functional
T3 sequence (Q9Y239 whole entry): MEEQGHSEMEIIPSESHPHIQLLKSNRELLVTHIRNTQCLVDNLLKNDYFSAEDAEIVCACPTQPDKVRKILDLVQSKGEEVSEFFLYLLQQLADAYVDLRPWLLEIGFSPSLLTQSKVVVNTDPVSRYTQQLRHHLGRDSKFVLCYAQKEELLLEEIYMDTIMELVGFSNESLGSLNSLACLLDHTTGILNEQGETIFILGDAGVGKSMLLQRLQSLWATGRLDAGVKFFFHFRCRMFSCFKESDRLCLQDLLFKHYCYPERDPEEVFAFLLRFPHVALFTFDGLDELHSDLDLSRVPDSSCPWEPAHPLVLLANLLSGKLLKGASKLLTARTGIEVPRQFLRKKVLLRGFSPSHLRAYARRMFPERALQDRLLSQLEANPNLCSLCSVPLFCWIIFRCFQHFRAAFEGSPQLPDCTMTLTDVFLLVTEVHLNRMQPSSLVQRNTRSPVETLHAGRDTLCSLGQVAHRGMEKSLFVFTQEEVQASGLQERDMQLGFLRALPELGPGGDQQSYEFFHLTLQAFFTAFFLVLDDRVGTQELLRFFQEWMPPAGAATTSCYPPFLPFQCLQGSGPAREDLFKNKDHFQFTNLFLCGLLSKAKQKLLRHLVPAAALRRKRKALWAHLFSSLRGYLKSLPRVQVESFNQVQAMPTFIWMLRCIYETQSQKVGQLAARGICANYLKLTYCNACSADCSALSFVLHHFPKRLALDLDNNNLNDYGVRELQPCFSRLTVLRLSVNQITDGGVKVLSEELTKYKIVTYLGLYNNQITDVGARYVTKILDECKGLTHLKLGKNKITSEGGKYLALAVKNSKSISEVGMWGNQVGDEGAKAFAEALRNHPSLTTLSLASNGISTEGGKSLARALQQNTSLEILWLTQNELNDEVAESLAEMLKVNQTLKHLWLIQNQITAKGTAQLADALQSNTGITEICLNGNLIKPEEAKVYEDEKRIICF

HEK293 [10] = experiment: SAR analysis of compounds that are cytotoxic to HEK293 - Set 2. [Related pubchem assays (depositor defined):AID1575, AID1578, AID1849, AID2001, AID2333, AID2334, AID2335, AID2337, AID2800]; assay type: functional, cell-based; conditions: Homo sapiens
HEK293 [11] = experiment: cells; assay type: functional, cell-based; conditions: Homo sapiens; remark: listed apart in the source
HEK293 [12] = experiment: cells; assay type: functional, cell-based; conditions: Homo sapiens; remark: listed apart in the source
Interleukin-8 [13] = target: T4, Interleukin-8 (Homo sapiens, UniProt P10145); experiment: SAR analysis of GM-Tri-DAP induced IL-8 secretion in MCF-7/NOD1 cells - Set 2. [Related pubchem assays (depositor defined):AID1575, AID1578, AID2333]; assay type: functional, cell-based
T4 sequence (P10145 whole entry): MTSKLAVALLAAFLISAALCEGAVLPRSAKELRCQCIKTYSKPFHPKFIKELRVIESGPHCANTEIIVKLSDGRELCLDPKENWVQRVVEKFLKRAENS

HEK293 [14] = experiment: NOD2 signaling inhibitors in MDP-stimulated cells, cell-based, uHTS, luminescence (AID 2001); assay type: functional; conditions: Homo sapiens
[15] = target: T3, Nucleotide-binding oligomerization domain-containing protein 1; experiment: SAR analysis of compounds that inhibit NOD1 - Set 2. [Related pubchem assays (depositor defined):AID1566, AID1575, AID1578, AID1849, AID1852, AID2333, AID2335, AID2798]; assay type: functional
Interleukin-8 [16] = target: T4, Interleukin-8; experiment: SAR analysis of Tumor necrosis factor alpha (TNF-alpha) induced IL-8 secretion in MCF-7/NOD1 cells - Set 2. [Related pubchem assays (depositor defined):AID1575, AID2250, AID2260]; assay type: functional, cell-based
HEK293 [17] = experiment: inhibition of NOD1-driven NF-kB reporter – cell-based, luminescence, uHTS, primary screen (AID 1578); assay type: functional; conditions: Homo sapiens
[18] = NIH3T3 cell viability loss – ATP luminescence, mouse fibroblasts, counter-screen, dose response (AID 2010); assay type: functional, cell-based;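 note: cells exposed to compound for about 90 hours before reading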
HEK293 [19] = experiment: cells; conditions: Homo sapiens
[20] = target: T2, Nucleotide-binding oligomerization domain-containing protein 2; experiment: inhibition of NOD2-driven NF-kB reporter – cell-based, luminescence, uHTS, HEK293 (AID 1566); assay type: functional
[21] = target: T2, Nucleotide-binding oligomerization domain-containing protein 2; experiment: inhibition of NOD2 signaling – set 2, SAR follow-up (AID 2475); assay type: functional
[22] = test system: Streptococcus sp. 'group A'; experiment: Streptococcus pyogenes SK(-)GAS viability under kanamycin – luminescence, BacTiterGlo, confirmation, counter-screen for streptokinase expression inhibitor project, dose response (AID 1900); assay type: functional, organism-based
[23] = target: NACHT, LRR and PYD domains-containing protein 3 (Homo sapiens, UniProt Q96P20); experiment: NALP3 inhibitors in yeast, dose response, luminescent (AID 488799); assay type: functional
Streptococcus = experiment: GAS UMAA2166 growth inhibition – luminescence, BacTiterGlo, counter-screen for streptokinase expression inhibitor project, dose response (AID 1915); assay type: functional, organism-based;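 note: potency for reduction of bacterial viability or growth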
INS1 = experiment: INS-1E survival protection against cytokine death – cell-based, luminescence, retest, dose response (AID 449756); assay type: functional; conditions: Rattus norvegicus;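 note: cell death triggered by IL-1 beta plus TNF-alpha plus IFN-gamma mixture; protective hits raise ATP signal compared with cytokine alone wells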

T2 sequence (Q9HC29 whole entry, the tested form may be a part): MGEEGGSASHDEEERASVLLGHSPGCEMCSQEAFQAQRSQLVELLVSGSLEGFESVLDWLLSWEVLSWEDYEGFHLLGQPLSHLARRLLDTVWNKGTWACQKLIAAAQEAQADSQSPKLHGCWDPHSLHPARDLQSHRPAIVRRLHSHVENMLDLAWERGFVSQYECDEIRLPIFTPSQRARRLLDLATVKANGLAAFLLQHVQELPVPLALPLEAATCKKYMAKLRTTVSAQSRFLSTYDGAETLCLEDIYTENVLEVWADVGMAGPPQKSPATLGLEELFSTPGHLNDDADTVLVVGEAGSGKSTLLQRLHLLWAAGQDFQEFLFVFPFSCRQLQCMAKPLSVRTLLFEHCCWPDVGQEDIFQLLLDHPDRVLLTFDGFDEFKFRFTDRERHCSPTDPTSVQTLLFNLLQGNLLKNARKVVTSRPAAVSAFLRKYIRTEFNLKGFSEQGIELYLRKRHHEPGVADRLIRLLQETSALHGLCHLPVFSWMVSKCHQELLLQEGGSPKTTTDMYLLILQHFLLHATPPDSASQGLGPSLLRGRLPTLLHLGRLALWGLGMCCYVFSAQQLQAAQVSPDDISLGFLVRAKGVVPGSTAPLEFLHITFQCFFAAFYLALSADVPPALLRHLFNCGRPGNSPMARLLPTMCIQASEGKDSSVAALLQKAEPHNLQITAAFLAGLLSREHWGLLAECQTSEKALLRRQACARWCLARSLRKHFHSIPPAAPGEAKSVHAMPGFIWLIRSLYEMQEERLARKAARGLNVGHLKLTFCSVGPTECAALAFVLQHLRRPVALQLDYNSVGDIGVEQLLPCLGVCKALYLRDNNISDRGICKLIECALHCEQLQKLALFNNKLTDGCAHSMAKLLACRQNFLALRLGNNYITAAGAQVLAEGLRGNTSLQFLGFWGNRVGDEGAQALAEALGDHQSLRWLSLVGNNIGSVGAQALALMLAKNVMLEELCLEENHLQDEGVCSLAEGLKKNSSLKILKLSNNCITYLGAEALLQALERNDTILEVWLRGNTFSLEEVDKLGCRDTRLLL
T1 sequence (Q9Y570 whole entry): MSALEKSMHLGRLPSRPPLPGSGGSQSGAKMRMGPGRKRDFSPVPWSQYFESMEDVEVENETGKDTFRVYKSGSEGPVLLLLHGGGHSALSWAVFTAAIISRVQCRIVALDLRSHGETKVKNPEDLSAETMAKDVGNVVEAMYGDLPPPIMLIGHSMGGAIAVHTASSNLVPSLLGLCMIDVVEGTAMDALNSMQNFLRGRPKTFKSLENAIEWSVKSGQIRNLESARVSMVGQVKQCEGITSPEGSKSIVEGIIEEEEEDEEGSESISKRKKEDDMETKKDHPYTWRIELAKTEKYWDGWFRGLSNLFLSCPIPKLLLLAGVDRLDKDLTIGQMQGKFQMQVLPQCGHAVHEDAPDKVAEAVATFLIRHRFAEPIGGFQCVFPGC
Tumor necrosis factor, sequence (P01375 whole entry, the tested form may be a part): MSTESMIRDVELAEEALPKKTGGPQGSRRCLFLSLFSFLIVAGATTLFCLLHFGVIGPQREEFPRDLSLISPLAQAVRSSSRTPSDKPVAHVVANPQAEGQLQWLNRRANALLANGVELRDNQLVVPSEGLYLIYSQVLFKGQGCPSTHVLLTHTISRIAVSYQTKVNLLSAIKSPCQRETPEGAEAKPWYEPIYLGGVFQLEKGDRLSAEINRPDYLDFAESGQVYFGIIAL
NACHT, LRR and PYD domains-containing protein 3, sequence (Q96P20 whole entry, the tested form may be a part): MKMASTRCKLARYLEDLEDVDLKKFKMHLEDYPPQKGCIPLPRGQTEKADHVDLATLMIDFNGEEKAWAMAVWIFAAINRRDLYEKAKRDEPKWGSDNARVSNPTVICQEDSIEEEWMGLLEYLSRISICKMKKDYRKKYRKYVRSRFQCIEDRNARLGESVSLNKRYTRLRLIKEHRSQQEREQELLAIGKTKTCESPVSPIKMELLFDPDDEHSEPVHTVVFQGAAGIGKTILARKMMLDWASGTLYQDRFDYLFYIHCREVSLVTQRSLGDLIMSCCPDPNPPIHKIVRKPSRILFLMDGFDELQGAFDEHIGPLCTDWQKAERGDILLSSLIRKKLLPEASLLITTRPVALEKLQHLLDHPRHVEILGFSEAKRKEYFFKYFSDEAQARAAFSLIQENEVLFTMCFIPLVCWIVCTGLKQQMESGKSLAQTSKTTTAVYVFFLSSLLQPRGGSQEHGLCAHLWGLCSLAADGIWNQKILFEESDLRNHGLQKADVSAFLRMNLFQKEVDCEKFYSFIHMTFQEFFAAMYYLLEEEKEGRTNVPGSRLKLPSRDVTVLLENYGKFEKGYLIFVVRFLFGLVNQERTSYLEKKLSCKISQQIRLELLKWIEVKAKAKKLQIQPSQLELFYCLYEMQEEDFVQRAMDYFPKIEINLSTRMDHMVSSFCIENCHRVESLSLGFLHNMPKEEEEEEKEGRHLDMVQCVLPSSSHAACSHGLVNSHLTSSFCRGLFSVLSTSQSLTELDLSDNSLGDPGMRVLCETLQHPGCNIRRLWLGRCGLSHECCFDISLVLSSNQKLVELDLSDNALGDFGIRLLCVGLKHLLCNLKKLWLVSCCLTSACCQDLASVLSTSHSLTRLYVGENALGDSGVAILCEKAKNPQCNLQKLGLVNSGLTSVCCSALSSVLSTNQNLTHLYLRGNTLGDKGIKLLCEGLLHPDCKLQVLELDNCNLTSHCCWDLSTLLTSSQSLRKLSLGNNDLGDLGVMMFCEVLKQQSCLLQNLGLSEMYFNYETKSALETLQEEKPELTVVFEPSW
Polyadenylate-binding protein 1, sequence (P11940 whole entry): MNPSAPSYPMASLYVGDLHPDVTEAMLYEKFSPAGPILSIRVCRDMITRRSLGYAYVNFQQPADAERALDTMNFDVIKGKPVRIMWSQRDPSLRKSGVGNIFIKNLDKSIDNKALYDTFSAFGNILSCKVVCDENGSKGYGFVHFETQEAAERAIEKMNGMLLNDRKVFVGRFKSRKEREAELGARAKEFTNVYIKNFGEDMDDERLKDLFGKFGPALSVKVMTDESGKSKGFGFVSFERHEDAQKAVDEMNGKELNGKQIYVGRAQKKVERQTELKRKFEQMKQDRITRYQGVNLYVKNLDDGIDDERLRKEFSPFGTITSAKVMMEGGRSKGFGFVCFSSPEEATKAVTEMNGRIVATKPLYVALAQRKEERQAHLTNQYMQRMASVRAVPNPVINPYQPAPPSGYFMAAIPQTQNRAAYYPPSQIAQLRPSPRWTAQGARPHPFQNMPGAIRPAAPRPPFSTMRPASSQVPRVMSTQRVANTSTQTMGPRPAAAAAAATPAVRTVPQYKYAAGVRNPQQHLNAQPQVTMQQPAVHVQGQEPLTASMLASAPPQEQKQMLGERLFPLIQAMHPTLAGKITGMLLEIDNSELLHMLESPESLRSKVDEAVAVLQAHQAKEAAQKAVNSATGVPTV
Bcl-2-like protein 10, sequence (Q9HD36 whole entry): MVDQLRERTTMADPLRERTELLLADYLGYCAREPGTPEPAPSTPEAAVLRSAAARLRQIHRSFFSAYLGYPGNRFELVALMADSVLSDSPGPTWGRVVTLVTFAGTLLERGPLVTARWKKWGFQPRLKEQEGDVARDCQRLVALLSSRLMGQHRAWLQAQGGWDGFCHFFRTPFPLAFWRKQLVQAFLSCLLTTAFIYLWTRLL

With `C=CCSc1nnc2nc3c(nn12)c1cc(C)ccc1n3CC=C` the IC50 (Bcl-2-like protein 10) was > 100 µM (inactive).
In the case of `Cc1ccccc1/C=C/c1cccc[n+]1C`, the IC50 [1] is reported as > 100 µM (inactive) and the IC50 [2] is reported as 7.43 µM (active).
In the case of `CCOC(=O)N1CCN(C(=O)c2ccc3nc(-c4ccco4)c(-c4ccco4)nc3c2)CC1`, the IC50 [3] is reported as 42.5 µM (active).
With `CSc1nc(-c2ccccc2)nc(-c2ccccc2OC(C)=O)n1` the IC50 (cells) was > 10 µM (inactive) and the IC50 (MDA-MB-435) was > 10 µM (inactive).
For `CS(=O)(=O)C(=Cc1cccn1S(=O)(=O)c1ccccc1)S(C)(=O)=O`, the IC50 [4] was > 20 µM (inactive) and the IC50 [5] was > 20 µM (not active).
In the case of `O=C(Nc1nc2ccccc2n1Cc1ccc(Cl)cc1)c1ccco1`, the IC50 [6] is reported as > 20 µM (inactive), the EC50 [7] is reported as 1.72 µM (active) and the IC50 (HEK293 [8]) is reported as > 20 µM (inactive). For the same molecule, the IC50 (Tumor necrosis factor) was > 20 µM (inactive), the IC50 [9] was > 20 µM (inactive) and the IC50 (HEK293 [10]) was > 20 µM (inactive). For the same molecule, the IC50 (HEK293 [11]) was > 20 µM (inactive), the IC50 (HEK293 [12]) was > 20 µM (inactive) and the IC50 (Interleukin-8 [13]) was > 25 µM (inactive). For the same molecule, the IC50 (HEK293 [14]) was 1.96 µM (active), the IC50 [15] was 3.47 µM (active) and the IC50 (Interleukin-8 [16]) was > 25 µM (inactive). The EC50 (HEK293 [17]) was > 20 µM (inactive), the EC50 [18] was > 60 µM (not active) and the IC50 (HEK293 [19]) was > 20 µM (inactive). For the same molecule, the EC50 [20] was > 20 µM (inactive) and the IC50 [21] was 3.63 µM (active).
With `CC(=O)Oc1c(I)cc(I)cc1C(=O)Nc1ccc(Cl)cc1` [CLIOXANIDE] the EC50 [22] was 0.377 µM (active), the IC50 [23] was 1.61 µM (active) and the EC50 (Streptococcus) was 0.76 µM (active). For the same molecule, the AC50 (INS1) was 12.5 µM (active).

From ChEMBL document CHEMBL1201862, “PubChem BioAssay data set” (2004)
